Reference: patent publication US11807627B2, “Morphic forms of complement factor D inhibitors” (priority 2018, dated 2023)

Tests used:
Type in all cases: physicochemical
[1] = Polymorph study: anti-solvent addition
Description: Anti-solvent additions were completed on saturated solutions of Compound 3 produced from temperature cycling experiments. Precipitation of solids was observed (before anti-solvent additions were completed) from selected solvent systems when storage under ambient conditions. Precipitated solids were analyzed by XRPD and re-dissolved using gentle heating and addition of minimal solvent. An appropriate anti-solvent was added to each saturated solution in 50μL aliquots until precipitation was observed or a total of 1 mL anti-solvent had been added. Samples where solids were precipitated were isolated using centrifuge filtration and analyzed by XRPD. […] Samples where solids had precipitated were isolated using centrifuge filtration and analyzed by XRPD (Table 20A and Table 20B).

[2] = pH experiments and SIF/SGF/FaSSIF/FeSSIF solubility (Examples 3 and 4)
[3] = Dose number and BCS classification
[4] = Polymorph study: crash cooling
Description: Saturated solutions of Compound 3 produced from temperature cycling experiments were placed into a fridge to crash cool to 4° C. After about 4 days, observations were made and solids produced were isolated using centrifuge filtration and analyzed by XRPD. Where no solids were recovered, solutions were placed into a freezer (−20° C.) for 14 days. Any solids produced were isolated by centrifuge filtration and analyzed by XRPD (Table 19).

[5] = Solvent experiments (solubility, Example 3)
[6] = Polymorph study: temperature cycling
Description: Approximately 960 mg of Compound 3 Form A was weighed into a 20 mL glass vial and dissolved using 12 mL 1,4-dioxane. 0.5 mL of the solution was then dispensed into twenty-four 1.5 mL HPLC glass vials (approx. 40 mg per vial). The Compound 3 Form A solutions were then frozen (at −50° C.) and dried by lyophilization using a Lablyo mini freeze drier. Post-lyophilization, a sub-sample was taken and analyzed by XRPD. Material was successfully rendered amorphous by lyophilization.
An appropriate volume of solvent (solvent systems are detailed in Table 17) was added to lyophilized solids. The samples were temperature cycled between ambient and 40° C. (4 hour cycles) for around 72 hours. Observations were made after 72 hours temperature cycling. Further solvent was added to the samples to produce a mobile slurry and slurries were agitated at 40° C. for approximately 18 additional hours. A sub-sample of solid (where applicable) was analyzed by XRPD. Samples were heated using a heat gun to aid dissolution to ensure saturated solutions were produced. Saturated solutions were syringe filtered to remove any potential seed material (as a precaution) and divided between three different crystallization conditions: cooling, evaporation, and anti-solvent addition (volumes of saturated solutions per condition can be found in Table 17).

[7] = Solid state stress testing (temperature, humidity, storage, photostability)
[8] = Polarized light microscopy (PLM); conditions: Table 27A
Description: The presence of crystallinity (birefringence) was determined using an Olympus BX50 microscope, equipped with cross-polarizing lenses and a Motic camera. Images were captured using Motic Images Plus 2.0. All images were recorded using the 20×objective, unless otherwise stated. All samples were prepared using silicone oil and covered with a cover slip before PLM analysis was completed.

[9] = 50% 2-Propanol / 50% Heptane (% v/v)
[10] = 70% 2-Propanol / 30% Heptane (% v/v)
[11] = 70% 2-Propanol / 30% Water (% v/v) aw = 0.8
[12] = 95% 2-Propanol / 5% Heptane (% v/v)
[13] = 95% Heptane / 5% 2-Propanol (% v/v)
[14] = 95% Methanol / 5% Water (% v/v) calc. aw = 0.2
[15] = 40% Ethanol / 60% Water (% v/v) calc. aw = 0.7
[16] = 50% 2-Propanol / 50% Heptane (% v/v), WC = weakly crystalline
[17] = 50% Acetonitrile / 50% Water (% v/v) calc. aw = 0.9
[18] = 50% Ethanol / 50% Heptane (% v/v)

CC(=O)c1nn(CC(=O)N2[C@H](C(=O)Nc3nc(Br)ccc3C)C[C@@]3(C)C[C@@H]23)c2ccc(-c3cnc(C)nc3)cc12 [Compound 3, (1R,3S,5R)-2-(2-(3-acetyl-5-(2-methylpyrimidin-5-yl)-1H-indazol-1-yl)acetyl)-N-(6-bromo-3-methylpyridin-2-yl)-5-methyl-2-azabicyclo[3.1.0]hexane-3-carboxamide]
Form B: Crystallization technique: Anti-solvent Additions ([1]; Methylisobutyl Ketone) | Crystallization technique: Maturation ([6]; Acetone)
Form A (WC) *: Crystallization technique: Anti-solvent Additions ([1]; 1-Butanol, *solids that precipitated under ambient conditions, WC = weakly crystalline) | Crystallization technique: Anti-solvent Additions ([1]; 50% 2-Propanol / 50% Heptane (% v/v), *solids that precipitated under ambient conditions, WC = weakly crystalline)
Form A: XRPD analysis after re- dissolution and storage at 4° C. for ca. 48 hours ([1]; 2-Propanol) | XRPD analysis after re- dissolution and storage at 4° C. for ca. 48 hours ([1]; 50% Ethanol:50% Heptane (% v/v)) | XRPD analysis after re- dissolution and storage at 4° C. for ca. 48 hours [1, 12] | XRPD analysis after re- dissolution and storage at 4° C. for ca. 48 hours ([1]; Acetone) | XRPD analysis after re- dissolution and storage at 4° C. for ca. 48 hours ([1]; Ethanol) | Crystallization technique: Anti-solvent Additions ([1]; Methylethyl Ketone) | Crystallization technique: Anti-solvent Additions ([1]; Tetrahydrofuran) | Crystallization technique: Cooling ([4]; 1-Butanol) | Crystallization technique: Cooling ([4]; 2-Propanol) | Crystallization technique: Cooling [4, 18] | Crystallization technique: Cooling [4, 12] | Crystallization technique: Cooling ([4]; Acetone) | Crystallization technique: Maturation ([6]; 1-Butanol) | Crystallization technique: Maturation ([6]; 2-Methyl Tetrahydrofuran) | Crystallization technique: Maturation ([6]; 2-Propanol) | Crystallization technique: Maturation [6, 11] | Crystallization technique: Maturation [6, 12] | Crystallization technique: Maturation ([6]; Methylethyl Ketone)
56.68 μg/mL: pH Experiments (solubility) ([2]; 4.0 pH)
Form B (WC): Crystallization technique: Maturation ([6]; 70% 2-Propanol / 30% Heptane (% v/v), WC = weakly crystalline)
34300 µg/mL: solubility ([5]; acetone, organic solvent or mixture)
153 µg/mL: solubility ([2]; FeSSIF, read-out: FeSSIF solubility)
104000 µg/mL: solubility ([5]; DMSO, organic solvent or mixture)
389.37 μg/mL: pH Experiments (solubility) ([2]; 1.2 pH)
96.35 μg/mL: pH Experiments (solubility) ([2]; SGF pH = 1.6)
BCS II compound: BCS class [3]
54.60 μg/mL: pH Experiments (solubility) ([2]; 6.0 pH)
Pattern O: Crystallization technique: Maturation ([6]; Methanol)
8380 µg/mL: solubility ([5]; ethanol, organic solvent or mixture)
White solid: Observations after storage in the fridge for ca. 48 hours ([1]; Ethyl Acetate (dry))
1040 µg/mL: solubility ([5]; UPLC Water)
Mixture L + M*: Crystallization technique: Anti-solvent Additions ([1]; 40% Ethanol / 60% Water (% v/v) calc. aw = 0.7, *solids that precipitated under ambient conditions) | Crystallization technique: Anti-solvent Additions ([1]; 70% 2-Propanol / 30% Heptane (% v/v), *solids that precipitated under ambient conditions)
865 µg/mL: solubility ([5]; heptane, organic solvent or mixture)
Pattern N: Crystallization technique: Maturation [6, 15]
Form A (WC): Crystallization technique: Cooling [4, 16] | Crystallization technique: Maturation [6, 16] | Crystallization technique: Maturation ([6]; 95% Heptane / 5% 2-Propanol (% v/v), WC = weakly crystalline) | Crystallization technique: Maturation ([6]; Methylisobutyl Ketone, WC = weakly crystalline)
75.4 µg/mL: solubility ([2]; FaSSIF, read-out: FaSSIF solubility)
degrades: pH Experiments: stability in the medium ([2]; 1.2 pH)
80.77 μg/mL: pH Experiments (solubility) ([2]; SIF pH = 6.5)
Amorphous: XRPD analysis after re- dissolution and storage at 4° C. for ca. 48 hours ([1]; Ethyl Acetate (dry)) | Crystallization technique: Anti-solvent Additions ([1]; Toluene) | Crystallization technique: Cooling [4, 15] | Crystallization technique: Cooling ([4]; Ethanol) | Crystallization technique: Cooling ([4]; Ethyl Acetate (dry)) | Crystallization technique: Cooling ([4]; Toluene) | Crystallization technique: Maturation [6, 18] | Crystallization technique: Maturation [6, 14] | Crystallization technique: Maturation ([6]; Ethanol) | Crystallization technique: Maturation ([6]; Ethyl Acetate (dry)) | Crystallization technique: Maturation ([6]; Toluene) | Crystallization technique: Maturation ([6]; n-Heptane) | Crystallization technique: Maturation ([6]; tert-Butylmethyl Ether)
53.41 μg/mL: pH Experiments (solubility) ([2]; 7.4 pH)
Form J: Crystallization technique: Maturation ([6]; Acetonitrile)
No light senstitivity: Solid State Stress Testing: Photostability ([7]; exposure to UV visible)
No degradation: Solid State Stress Testing: Room Temperature storage [7] | Solid State Stress Testing: Humidity ([7]; 40° C./75% RH) | Solid State Stress Testing: Elevated temperature ([7]; 105° C. - 24 hr)
WC Form A: XRPD analysis after re- dissolution and storage at 4° C. for ca. 48 hours ([1]; 1-Butanol, WC = weakly crystalline)
Dose Number for 100 mg dos 3-7: Dose Number ([3]; for 100 mg dose)
Clear solution: Observation after re-dissolution and anti-solvent addition [1, 9] | Observations after storage in the fridge for ca. 48 hours [1, 9] | Observation after re-dissolution and anti-solvent addition [1, 10] | Observations after storage in the fridge for ca. 48 hours [1, 10] | Observations after storage in the fridge for ca. 48 hours ([1]; 70% 2-Propanol / 30% Heptane (% v/v) re-prepared sample) | Crystallization technique: Anti-solvent Additions [1, 11] | Observations after storage in the fridge for ca. 48 hours [1, 11] | Observations after storage in the fridge for ca. 48 hours [1, 13] | Crystallization technique: Anti-solvent Additions [1, 14] | Observations after storage in the fridge for ca. 48 hours ([1]; 95% Methanol:5% Water (% v/v) calc. aw = 0.2) | Observations after storage in the fridge for ca. 48 hours ([1]; Acetonitrile) | Crystallization technique: Anti-solvent Additions ([1]; Methanol) | Observations after storage in the fridge for ca. 48 hours ([1]; Methanol) | Crystallization technique: Anti-solvent Additions ([1]; n-Heptane) | Crystallization technique: Cooling ([4]; 2-Methyl Tetrahydrofuran) | Crystallization technique: Cooling [4, 17] | Crystallization technique: Cooling [4, 10] | Crystallization technique: Cooling [4, 11] | Crystallization technique: Cooling [4, 13] | Crystallization technique: Cooling [4, 14] | Crystallization technique: Cooling ([4]; Acetonitrile) | Crystallization technique: Cooling ([4]; Methanol) | Crystallization technique: Cooling ([4]; Methylethyl Ketone) | Crystallization technique: Cooling ([4]; Methylisobutyl Ketone) | Crystallization technique: Cooling ([4]; Tetrahydrofuran) | Crystallization technique: Cooling ([4]; n-Heptane) | Crystallization technique: Cooling ([4]; tert-Butylmethyl Ether) | Crystallization technique: Maturation ([6]; 1,4-Dioxane) | Crystallization technique: Maturation [6, 17] | Crystallization technique: Maturation ([6]; Tetrahydrofuran)
Form A*: Crystallization technique: Anti-solvent Additions ([1]; 2-Propanol, *solids that precipitated under ambient conditions) | Crystallization technique: Anti-solvent Additions ([1]; 50% Ethanol / 50% Heptane (% v/v), *solids that precipitated under ambient conditions) | Crystallization technique: Anti-solvent Additions ([1]; 95% 2-Propanol / 5% Heptane (% v/v), *solids that precipitated under ambient conditions) | Crystallization technique: Anti-solvent Additions ([1]; Acetone, *solids that precipitated under ambient conditions) | Crystallization technique: Anti-solvent Additions ([1]; Ethanol, *solids that precipitated under ambient conditions) | Crystallization technique: Anti-solvent Additions ([1]; Ethyl Acetate (dry), *solids that precipitated under ambient conditions)

CC(=O)c1nn(CC(=O)N2[C@H](C(=O)Nc3nc(Br)ccc3C)C[C@@]3(C)C[C@@H]23)c2ccc(-c3cnc(C)nc3)cc12 [Form B]
Birefringent rods: PLM [8]
